Patent US8952024B2, “Herbicidal pyrimidone derivatives” (E I du Pont de Nemours and Company, priority 2009, dated 2015)

Columns and labels:
Assay type in all cases: in vivo
[1] = system: umbrella sedge (Cyperus difformis); assay: Test B flooded paddy test; details: for Plant response rating, Flood, Sedge, Umbrella: 250 g ai/ha, flooded paddy test, visual rating on 0 to 100 scale (0 no effect, 100 complete control) after 13 to 15 days; for Plant response rating, Sedge, Umbrella: Flood (flooded paddy test), 13 to 15 days; for Sedge, Umbrella plant response rating: Flood, 31 g ai/ha, scale 0 to 100 (0 no effect, 100 complete control)
Outline: (§1)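 Post-flood paddy application: compounds are introduced into water 3 cm deep over the soil, reaching plants at the 2-leaf stage. The water level is maintained, and after 13–15 days under greenhouse conditions, response is judged by eye relative to controls, where 100 means complete control.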

[2] = system: ducksalad (Heteranthera limosa); assay: Test B flooded paddy test; details: for Plant response rating, Flood, Ducksalad: 250 g ai/ha, flooded paddy test, visual rating on 0 to 100 scale (0 no effect, 100 complete control) after 13 to 15 days; for Plant response rating, Ducksalad: Flood (flooded paddy test), 13 to 15 days; for Ducksalad plant response rating: Flood, 31 g ai/ha, scale 0 to 100 (0 no effect, 100 complete control)
Outline: as §1

rice (Oryza sativa) = assay: Test B flooded paddy test; details: for Plant response rating, Flood, Rice: 250 g ai/ha, flooded paddy test, visual rating on 0 to 100 scale (0 no effect, 100 complete control) after 13 to 15 days; for Plant response rating, Rice: Flood (flooded paddy test), 13 to 15 days; for Rice plant response rating: Flood, 31 g ai/ha, scale 0 to 100 (0 no effect, 100 complete control)
Outline: as §1

[3] = system: barnyardgrass (Echinochloa crus-galli); assay: Test B flooded paddy test; details: for Plant response rating, Flood, Barnyardgrass: 250 g ai/ha, flooded paddy test, visual rating on 0 to 100 scale (0 no effect, 100 complete control) after 13 to 15 days; for Plant response rating, Barnyardgrass: Flood (flooded paddy test), 13 to 15 days; for Barnyardgrass plant response rating: Flood, 31 g ai/ha, scale 0 to 100 (0 no effect, 100 complete control)
Outline: as §1

[4] = system: giant foxtail (Setaria faberii); assay: Test A pre-/postemergence plant response
Outline: (§2)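 Visual injury rating on a 0–100 scale (0 = no effect, 100 = complete control) was made versus untreated controls after about ten days in the greenhouse. Compounds, formulated in a non-phytotoxic solvent mix containing surfactant, were sprayed preemergence onto loam/sand soil and postemergence onto one- to two-leaf plants.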

corn (Zea mays) = assay: Test A pre-/postemergence plant response
Outline: as §2

[5] = system: pigweed (Amaranthus retroflexus); assay: Test A pre-/postemergence plant response
Outline: as §2

[6] = system: wheat (Triticum aestivum); assay: Test A pre-/postemergence plant response
Outline: as §2

[7] = system: morningglory (Ipomoea spp.); assay: Test A pre-/postemergence plant response
Outline: as §2

[8] = system: velvetleaf (Abutilon theophrasti); assay: Test A pre-/postemergence plant response
Outline: as §2

[9] = system: large crabgrass (Digitaria sanguinalis); assay: Test A pre-/postemergence plant response
Outline: as §2

[10] = system: barnyardgrass (Echinochloa crus-galli); assay: Test A pre-/postemergence plant response
Outline: as §2

[11] = 62 g ai/ha, scale of 0 to 100 where 0 is no effect and 100 is complete control
[12] = 125 g ai/ha, scale 0 to 100, 0 is no effect, 100 is complete control
[13] = Postemergence, 125 g ai/ha, 0 to 100 scale where 0 is no effect and 100 is complete control
[14] = Postemergence, 500 g ai/ha, 0 to 100 scale, 0 = no effect, 100 = complete control, approx. ten days
[15] = Preemergence, 500 g ai/ha, visual injury, 0 to 100 scale (0 no effect, 100 complete control), approx. ten days
[16] = Preemergence, 125 g ai/ha, 0 to 100 scale, 0 = no effect, 100 = complete control

CCCCn1c(-c2ccccc2)ncc(C(=O)C2=C(O)CCCC2=O)c1=O [Compound 86]
Plant response rating, Flood, Sedge, Umbrella [1]: 85
Plant response rating, Sedge, Umbrella [1, 11]: 30
Plant response rating, Sedge, Umbrella [1, 12]: 70
Sedge, Umbrella plant response rating [1]: 20
Plant response rating, Flood, Ducksalad [2]: 65
Plant response rating, Ducksalad [2, 11]: 55
Plant response rating, Ducksalad [2, 12]: 55
Ducksalad plant response rating [2]: 0
Plant response rating, Flood, Rice (rice (Oryza sativa)): 40
Plant response rating, Rice (rice (Oryza sativa); [11]): 0
Plant response rating, Rice (rice (Oryza sativa); [12]): 20
Rice plant response rating (rice (Oryza sativa)): 0
Plant response rating, Flood, Barnyardgrass [3]: 60
Plant response rating, Barnyardgrass [3, 11]: 40
Plant response rating, Barnyardgrass [3, 12]: 50
Barnyardgrass plant response rating [3]: 30
Plant response rating, Foxtail, Giant [4, 13]: 80
Plant response rating, Foxtail, Giant [4, 14]: 90
Plant response rating, Foxtail, Giant [4, 15]: 100
Plant response rating, Corn (corn (Zea mays); [13]): 0
Plant response rating, Corn (corn (Zea mays); [14]): 50
Plant response rating, Pigweed [5, 13]: 100
Plant response rating, Pigweed [5, 14]: 100
Plant response rating, Wheat [6, 13]: 0
Plant response rating, Wheat [6, 14]: 50
Plant response rating, Morningglory [7, 13]: 90
Plant response rating, Morningglory [7, 14]: 90
Plant response rating, Morningglory [7, 16]: 0
Plant response rating, Morningglory [7, 15]: 60
Plant response rating, Velvetleaf [8, 13]: 100
Plant response rating, Velvetleaf [8, 14]: 100
Plant response rating, Velvetleaf [8, 15]: 100
Plant response rating, Crabgrass, Large [9, 13]: 90
Plant response rating, Crabgrass, Large [9, 14]: 90
Plant response rating, Barnyardgrass [10, 13]: 90
Plant response rating, Barnyardgrass [10, 14]: 90
Plant response rating, Barnyardgrass [10, 16]: 20
Plant response rating, Barnyardgrass [10, 15]: 100

O=C1CCCC(OC(=O)C2CC2)=C1C(=O)c1cnc(-c2ccccc2)n(-c2ccccc2)c1=O [Compound 88]
Plant response rating, Flood, Sedge, Umbrella [1]: 65
Plant response rating, Sedge, Umbrella [1, 11]: 30
Plant response rating, Sedge, Umbrella [1, 12]: 40
Sedge, Umbrella plant response rating [1]: 0
Plant response rating, Flood, Ducksalad [2]: 80
Plant response rating, Ducksalad [2, 11]: 40
Plant response rating, Ducksalad [2, 12]: 75
Ducksalad plant response rating [2]: 30
Plant response rating, Flood, Rice (rice (Oryza sativa)): 50
Plant response rating, Rice (rice (Oryza sativa); [11]): 0
Plant response rating, Rice (rice (Oryza sativa); [12]): 40
Rice plant response rating (rice (Oryza sativa)): 0
Plant response rating, Flood, Barnyardgrass [3]: 60
Plant response rating, Barnyardgrass [3, 11]: 20
Plant response rating, Barnyardgrass [3, 12]: 40
Barnyardgrass plant response rating [3]: 0
Plant response rating, Foxtail, Giant [4, 13]: 60
Plant response rating, Foxtail, Giant [4, 14]: 90
Plant response rating, Foxtail, Giant [4, 15]: 100
Plant response rating, Corn (corn (Zea mays); [13]): 0
Plant response rating, Corn (corn (Zea mays); [14]): 60
Plant response rating, Corn (corn (Zea mays); [16]): 0
Plant response rating, Corn (corn (Zea mays); [15]): 0
Plant response rating, Pigweed [5, 13]: 100
Plant response rating, Pigweed [5, 14]: 100
Plant response rating, Wheat [6, 13]: 0
Plant response rating, Wheat [6, 14]: 0
Plant response rating, Wheat [6, 16]: 0
Plant response rating, Wheat [6, 15]: 10
Plant response rating, Morningglory [7, 13]: 90
Plant response rating, Morningglory [7, 14]: 100
Plant response rating, Morningglory [7, 16]: 50
Plant response rating, Morningglory [7, 15]: 70
Plant response rating, Velvetleaf [8, 13]: 100
Plant response rating, Velvetleaf [8, 14]: 100
Plant response rating, Velvetleaf [8, 16]: 80
Plant response rating, Velvetleaf [8, 15]: 100
Plant response rating, Crabgrass, Large [9, 13]: 90
Plant response rating, Crabgrass, Large [9, 14]: 90
Plant response rating, Barnyardgrass [10, 13]: 80
Plant response rating, Barnyardgrass [10, 14]: 90
Plant response rating, Barnyardgrass [10, 16]: 10
Plant response rating, Barnyardgrass [10, 15]: 90

CCCCCn1c(-c2ccccc2)ncc(C(=O)C2=C(O)CCCC2=O)c1=O [Compound 89]
Plant response rating, Flood, Sedge, Umbrella [1]: 85
Plant response rating, Sedge, Umbrella [1, 11]: 85
Plant response rating, Sedge, Umbrella [1, 12]: 85
Sedge, Umbrella plant response rating [1]: 30
Plant response rating, Flood, Ducksalad [2]: 100
Plant response rating, Ducksalad [2, 11]: 90
Plant response rating, Ducksalad [2, 12]: 100
Ducksalad plant response rating [2]: 45
Plant response rating, Flood, Rice (rice (Oryza sativa)): 15
Plant response rating, Rice (rice (Oryza sativa); [11]): 0
Plant response rating, Rice (rice (Oryza sativa); [12]): 0
Rice plant response rating (rice (Oryza sativa)): 0
Plant response rating, Flood, Barnyardgrass [3]: 40
Plant response rating, Barnyardgrass [3, 11]: 20
Plant response rating, Barnyardgrass [3, 12]: 30
Barnyardgrass plant response rating [3]: 20
Plant response rating, Foxtail, Giant [4, 13]: 60
Plant response rating, Foxtail, Giant [4, 14]: 90
Plant response rating, Foxtail, Giant [4, 16]: 20
Plant response rating, Foxtail, Giant [4, 15]: 70
Plant response rating, Corn (corn (Zea mays); [13]): 0
Plant response rating, Corn (corn (Zea mays); [14]): 10
Plant response rating, Corn (corn (Zea mays); [16]): 0
Plant response rating, Corn (corn (Zea mays); [15]): 0
Plant response rating, Pigweed [5, 13]: 100
Plant response rating, Pigweed [5, 14]: 100
Plant response rating, Pigweed [5, 16]: 90
Plant response rating, Pigweed [5, 15]: 100
Plant response rating, Wheat [6, 13]: 0
Plant response rating, Wheat [6, 14]: 20
Plant response rating, Wheat [6, 16]: 0
Plant response rating, Wheat [6, 15]: 30
Plant response rating, Morningglory [7, 13]: 100
Plant response rating, Morningglory [7, 14]: 100
Plant response rating, Morningglory [7, 16]: 0
Plant response rating, Morningglory [7, 15]: 70
Plant response rating, Velvetleaf [8, 13]: 100
Plant response rating, Velvetleaf [8, 14]: 100
Plant response rating, Velvetleaf [8, 16]: 70
Plant response rating, Velvetleaf [8, 15]: 100
Plant response rating, Crabgrass, Large [9, 13]: 90
Plant response rating, Crabgrass, Large [9, 14]: 100
Plant response rating, Crabgrass, Large [9, 16]: 60
Plant response rating, Crabgrass, Large [9, 15]: 90
Plant response rating, Barnyardgrass [10, 13]: 90
Plant response rating, Barnyardgrass [10, 14]: 90
Plant response rating, Barnyardgrass [10, 16]: 20
Plant response rating, Barnyardgrass [10, 15]: 80

CC(C)n1c(-c2ccccc2)ncc(C(=O)C2=C(O)CCCC2=O)c1=O [Compound 95]
Plant response rating, Flood, Sedge, Umbrella [1]: 75
Plant response rating, Sedge, Umbrella [1, 11]: 20
Plant response rating, Sedge, Umbrella [1, 12]: 50
Sedge, Umbrella plant response rating [1]: 0
Plant response rating, Flood, Ducksalad [2]: 20
Plant response rating, Ducksalad [2, 11]: 0
Plant response rating, Ducksalad [2, 12]: 0
Ducksalad plant response rating [2]: 0
Plant response rating, Flood, Rice (rice (Oryza sativa)): 30
Plant response rating, Rice (rice (Oryza sativa); [11]): 20
Plant response rating, Rice (rice (Oryza sativa); [12]): 30
Rice plant response rating (rice (Oryza sativa)): 0
Plant response rating, Flood, Barnyardgrass [3]: 70
Plant response rating, Barnyardgrass [3, 11]: 35
Plant response rating, Barnyardgrass [3, 12]: 65
Barnyardgrass plant response rating [3]: 20
Plant response rating, Foxtail, Giant [4, 13]: 70
Plant response rating, Foxtail, Giant [4, 14]: 90
Plant response rating, Foxtail, Giant [4, 16]: 30
Plant response rating, Foxtail, Giant [4, 15]: 60
Plant response rating, Corn (corn (Zea mays); [13]): 0
Plant response rating, Corn (corn (Zea mays); [14]): 10
Plant response rating, Corn (corn (Zea mays); [16]): 0
Plant response rating, Corn (corn (Zea mays); [15]): 0
Plant response rating, Pigweed [5, 13]: 100
Plant response rating, Pigweed [5, 14]: 100
Plant response rating, Pigweed [5, 16]: 90
Plant response rating, Pigweed [5, 15]: 100
Plant response rating, Wheat [6, 13]: 0
Plant response rating, Wheat [6, 14]: 0
Plant response rating, Wheat [6, 16]: 0
Plant response rating, Wheat [6, 15]: 0
Plant response rating, Morningglory [7, 13]: 100
Plant response rating, Morningglory [7, 14]: 100
Plant response rating, Morningglory [7, 16]: 70
Plant response rating, Morningglory [7, 15]: 90
Plant response rating, Velvetleaf [8, 13]: 100
Plant response rating, Velvetleaf [8, 14]: 100
Plant response rating, Velvetleaf [8, 16]: 90
Plant response rating, Velvetleaf [8, 15]: 100
Plant response rating, Crabgrass, Large [9, 13]: 90
Plant response rating, Crabgrass, Large [9, 14]: 90
Plant response rating, Crabgrass, Large [9, 16]: 50
Plant response rating, Crabgrass, Large [9, 15]: 90
Plant response rating, Barnyardgrass [10, 13]: 80
Plant response rating, Barnyardgrass [10, 14]: 90
Plant response rating, Barnyardgrass [10, 16]: 40
Plant response rating, Barnyardgrass [10, 15]: 80
